The source of these data is a melting point compilation (Tetko et al.; mined from patent text by program, amines drawn as free bases though some values may be those of a salt).

One may read the melting point as the temperature of the solid-liquid transition.

Compound `CC1(C)C(=O)Oc2ccc(Br)cc21` registered a melting point of 55 to 56 °C.
The figure for `CC(=O)CC(=O)N1CC(c2ccccc2)c2ccccc21` (centres undefined) is 88 to 89 °C; for `CCCCCCCCCCN(O)C(=O)NC` it is 96 to 97 °C; for `CCOC(=O)CNC(=O)N(N(CCCl)S(C)(=O)=O)S(C)(=O)=O` it is 121 to 122 °C.
As to `N#CCc1ccc(Cl)cc1C(=O)O`, the melting point came to 120 °C.
The figure for `CC(C)N(Cc1ccccc1)c1ncnc2c(N3CCOCC3)nc(N3CCC(N(C)C)CC3)nc12` is 122 to 125 °C; for `CCCCNc1ccc2n[nH]c(=O)n2n1` it is 259 to 261 °C.
The figure for `CC(C)(Cc1cc(F)cc(F)c1)NCC(O)c1cc(OCc2ccccc2)cc2c1OCC(=O)N2` (centres undefined) is 150 to 158 °C.
The same measure for `CCCCCCC(C)(C)c1cc(O)c2c(c1)oc(=O)c1ccc(O)cc12`: 103 to 108 °C; for `O=S(=O)(c1cccc2cccnc12)N1CCN(CCc2ccc(F)cc2)CC1`: 141 °C; for `COc1ccc(S(=O)(=O)NC(C)c2ccccc2-c2ccc(F)cc2F)cc1` (centres undefined): 154 to 155 °C.
In turn, `COC(=O)CCCCCNC(=O)C(CSC(C)=O)Cc1ccccc1` (centres undefined) had a melting point of 50 to 54 °C.
The same measure for `CN1CCC(OC2c3ccccc3C(=O)N2c2ccc3ccc(Cl)nc3n2)CC1` (centres undefined): 204 °C.
The same measure for `C=Cc1c(NC(C)=O)cc(-c2ccc(Cl)c(OC)c2F)nc1C(=O)OC`: 143 to 145 °C; for `COc1ccc(P2(=O)c3ccccc3CN2c2ccccc2)c(OC)c1` (centres undefined): 173 to 175 °C.
The figure for `COC(=O)c1cc2ccc(C(=O)NCCN3CCOCC3)cc2[nH]1` is 226 to 228 °C; for `N#CCN1CCCC(OC(c2ccccc2)c2ccccc2)C1` (centres undefined) it is 97 to 99 °C.
`COc1ccc(NC(=O)C#Cc2ccc(CN3CCCCC3)cc2)cc1` showed a melting point of 170 °C.
The same measure for `O=C(CNC(=O)C1CCCCC1)c1ccccc1`: 114 to 115 °C; for `CCOP(=O)(Cc1ccc(C(=S)Nc2nc3c(s2)Cc2c(Cl)cccc2-3)cc1)OCC`: 180 °C.
The same measure for `O=C1NCc2c1c(O)nc1ccccc21`: 340 to 350 °C; for `NC1=CC([N+](=O)[O-])C(N)(CC(F)(F)F)C=C1` (centres undefined): 104 to 106 °C.
The same measure for `CCCCCCCC/C=C\CCCCCCCC(=O)NCCNC(=O)CCNC(=O)C1OC(C)(C)OCC1(C)C` (centres undefined): 110 to 112 °C; for `O=C(Oc1cccc2c(OC(=O)c3ccc(O)cc3)c3c(OC(=O)c4ccc(O)cc4)cccc3cc12)c1ccc(O)cc1`: 326 °C; for `COc1ccc(-c2cc(CN3CCN(C)CC3)c(=O)n(Cc3ccc(Cl)cc3)n2)cc1F`: 129 to 130 °C.
For the compound `C#CCOc1cc(-n2c(=O)cc(C(F)(F)F)n(C)c2=O)c(F)cc1Br`, the melting point amounted to 134 °C.
The figure for `O=C(c1ccccc1Cl)c1ccccc1Nc1ncccc1[N+](=O)[O-]` is 119 °C; for `CN1C(=O)CC(=O)N(c2ccccc2)C1=O` it is 124 °C.
The same measure for `Nc1cccc2cc(-c3ccccc3)cnc12`: 64 to 66 °C; for `CCCOCC1(c2onc(-c3ccc(O)cc3)c2-c2ccccc2)CC1`: 111 to 112 °C.
The same measure for `CNC(=O)c1c(NC(=O)COC)c(OC)c(C(=O)NC)c(NC(=O)COC)c1OC`: 275 to 276 °C; for `FC(F)(F)c1cccc(CCc2nnc(-c3ccc4ncsc4c3)o2)c1`: 126 to 127 °C.
`Cc1c(NC(=O)c2ccc(OC[C@@H]3CCCO3)cc2F)ccc2cc(CNCC(C)C)cnc12` came in with a melting point of 133 to 134 °C.
The compound `O=c1[nH]cnc2c1cnn2CC(O)c1ccccc1` (centres undefined) yielded a melting point of 270 to 271 °C.
The same measure for `CC(=O)Nc1ccccc1Nc1ccc(C(=O)c2ccccc2)cc1`: 155 to 157 °C.
The same measure for `O=C(c1cccs1)N1CCN(c2c([N+](=O)[O-])c(=O)n(Cc3ccccc3)c3ncccc23)CC1`: 255 °C; for `CCOc1cc(/C(=C\C#N)c2ccc(NC(=O)OC)c(OC)c2)ccc1OC`: 148 to 149 °C.
Compound `CCCCCC1=C(c2ccc(F)cc2)C(=NO)CC1` displayed a melting point of 101 to 102 °C.
The figure for `CCOC(=O)C1(Sc2ccccc2)Cc2ccc(N(C)C)cc2NC1=O` (centres undefined) is 134 to 139 °C; for `CSC1NC(=O)N(c2ccc(C)cc2)C(=O)N1` it is 276 to 278 °C; for `CC(C)(C)c1cc(-c2nc(O)ns2)cc(C(C)(C)C)c1O` it is 230 to 232 °C.
The figure for `O=C(c1ccc(O)cc1)N1CC=CCC1` is 202 to 206 °C; for `CCCOc1ccccc1-c1nc2nc(OC)nnc2c(=O)[nH]1` it is 234 to 235 °C; for `CN(C)c1ccc(-c2noc([C@H]3CCCN(C(=O)c4ccc(F)cc4)C3)n2)cc1` it is 147 to 153 °C.
`Cc1ccc(C)c2c1C[C@@H](O)[C@@H]2Oc1cc(C(=O)N(C)C)cc2c1nc(C)n2C` (relative stereo) returned a melting point of 134 °C.
The figure for `CC1(C)CCC(=O)Nc2ccc(Nc3ncc(Cl)c(Nc4ccccc4-c4nccs4)n3)cc21` is 224 °C; for `N#Cc1ccc(C(=O)N2CCN(NC(=O)c3ccc(F)cc3)CC2)cc1` it is 222 to 224 °C.
The figure for `COC(C)(C)C#Cc1ncn2c1CN(C)C(=O)c1cc(F)ccc1-2` is 149 to 150 °C.
In the case of `CC1=C(c2ccc(O)cc2)C(=O)c2cc(O)c(O)cc21`, the melting point lay in the range of 226 to 229 °C.
The same measure for `Cn1c([N+](=O)[O-])cnc1CS(=O)c1ccccn1` (centres undefined): 160 °C; for `CN1CCN(C(=O)OC2C3=C(SCCS3)C(=O)N2c2ccccc2)CC1` (centres undefined): 166 °C; for `Cc1cc(F)ccc1NC(=O)c1cc([N+](=O)[O-])ccc1NC(=O)CF`: 237 to 239 °C.
`CC(C(=O)N(C)C)n1cc(I)c(-c2ccccc2)n1` (centres undefined) displayed a melting point of 108 to 111 °C.
The figure for `CN(C)CCc1cn(S(=O)(=O)c2ccccc2)c2ccc(O)cc12` is 185 to 188 °C; for `c1ccc(CN(Cc2ccccc2)c2ccc3sccc3c2)cc1` it is 114 to 117 °C.
The figure for `CCOC(=O)C(=O)OCc1ccc(OC)cc1` is 44 to 45 °C.
Take `C(=C1CCNCC1)c1ccc(C2=NCCO2)cc1`: the melting point is 110 °C.
The figure for `CCOC(=O)/C=C/c1ccc(Cn2ccnc2)c(Cl)c1` is 112 to 114 °C; for `Cc1cccc(CN(CCC(=O)O)c2nc(NC(=O)Nc3ccccc3O)nc(Nc3ccccc3-c3ccccc3)n2)c1` it is 122 to 124 °C.
The same measure for `Cc1ccc(C(=O)Nc2ccc3ccc(Cl)nc3n2)s1`: 220 °C; for `OC1CC(CN2CCC(c3ccccc3)CC2)CCc2ccccc21` (centres undefined): 48 to 50 °C; for `N#Cc1ccc2c(c1)S(=O)(=O)c1ccc(Cl)cc1C=C2`: 228 to 230 °C.
The same measure for `Clc1ccc(C(=Cn2cncn2)c2ccc(Cl)cc2)cc1`: 126 to 128 °C; for `NNc1cc2c(nn1)CCN(C(=O)c1cccc(Cl)c1)C2`: 178 to 180 °C; for `CCOC(=O)C(C)(Cc1cccc(OCCN2CCCCC2)c1)S(=O)(=O)c1ccc(OC)cc1` (centres undefined): 112 °C.
As to `Cc1cc(-c2cc(C(F)(F)F)n3ncc(-c4ccnc(CO)c4)c3n2)ccc1C(F)(F)F`, the melting point is 231 °C.
The same measure for `CC(N)C(=O)NC(Cc1ccccc1)C(=O)NCC(=O)Oc1c(Cl)c(Cl)c(Cl)c(Cl)c1Cl` (centres undefined): 180 to 183 °C.
`CCOC(=O)Cc1nn(Cc2nc3ccccc3n2C)c(=O)c2ccccc12` had a melting point of 118 °C.
The same measure for `CS(=O)(=O)c1ccc(Oc2ccc(C(=O)c3ccccc3)cc2)nc1`: 130 to 132 °C; for `CC(=O)NCc1ccc(CN2CCN(c3nc(C)cc(C)n3)CC2)cc1`: 127 to 128 °C.
The figure for `COC(=O)C1CCC(n2ccn(-c3ccc4c(c3)CCC(C#N)C4)c2=O)CC1` (centres undefined) is 116 to 118 °C; for `O=C(NCc1ccccc1Cl)Nc1ccc([N+](=O)[O-])cc1O` it is 199 to 200 °C.
The figure for `COC(=O)C1=C(C)NC(=O)N(C(C)=O)C1c1ccccc1` (centres undefined) is 156 to 159 °C.
Compound `Cn1nc(-c2ccc(Cl)c(Cl)c2)c2ccccc2c1=O` registered a melting point of 179 to 181 °C.
The same measure for `Clc1cccc(C2(Cn3cncn3)OCCO2)c1`: 114 °C; for `Cc1c(-c2ccc(O)cc2)n(Cc2ccc(OCCN3CCCCCCC3)cc2)c2ccc(O)cc12`: 98 to 102 °C.
The figure for `O=C(ON1C(=O)CCC1=O)c1ccco1` is 126 to 127 °C; for `CCSc1ccc2oc3cc(-c4nnn[nH]4)ccc3c(=O)c2c1` it is 261 to 262 °C; for `CCOC(=O)c1ccc(CCCC2NC(=O)CS2)c(Cl)c1` (centres undefined) it is 81.5 to 82.5 °C.
The same measure for `CCCc1cccnc1N(C)C1CCN(C(=O)c2ccc[nH]2)CC1`: 88 to 90 °C.
`CC(=O)N1CCC(CCC(=O)c2ccc3c(c2)CCN3C(C)=O)CC1` registered a melting point of 148 to 149 °C.
The figure for `COc1cc(C=CC(=O)c2cccc(O)c2)cc(OC)c1` is 126 to 127 °C; for `N#CSc1cc(Cl)c(Cl)c2sc(NC(=O)Nc3ccc(Cl)cc3)nc12` it is 238 to 239 °C; for `Cc1nc2cc(C(=O)NC(C)C)c(NC(=O)c3cc(C(F)(F)F)nn3-c3ncccc3Cl)c(Cl)c2nc1C` it is 243 to 244 °C.
The same measure for `CC(=O)OC(c1ccc(NC(=O)c2ccc(-c3ccc(Cl)cc3)cc2)cc1)C1CCCNC1` (centres undefined): 200 to 203 °C; for `O=C(O)c1c[nH]cc2c(=O)n(-c3ccccc3)nc1-2`: 287 to 302 °C.
On to `CC1(C)Cc2c(ccc3c2C(c2cccc(-c4ccc(NC(=O)OCc5ccccc5)cc4)c2)=NCC3(C)C)O1`, for which the melting point was 126 to 129 °C.
The figure for `CO[C@@H]1C=C2C=C3C(=C(C)C(=O)N3C)C[C@]2(C)[C@@H](C)[C@H]1OC(=O)c1cccs1` is 148 to 153 °C; for `CCC(=O)Oc1cc(OC)cc(OC)c1C(=O)C=Cc1ccc(C)cc1` it is 156 °C.
